ChEMBL document CHEMBL1201862, “PubChem BioAssay data set” (2004)
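1) Cells in 96-well plates. 2) Compound, 48 h, 5 concentrations. 3) Linear interpolation between surrounding doses. 4) Unreached endpoint = highest concentration. Here, GI50 denotes the concentration required for 50% inhibition of growth.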 Calls of active or inactive are those of the source. No stated cut-off is given here; in the data, active = GI50 up to about 1.1 µM and inactive = higher.

Tests used:
Test in all cases: DTP human tumour cell line panel, 48 h
HCT-116 = test system: HCT-116
OVCAR-5 = test system: OVCAR-5
SNB-19 = test system: SNB-19
CCRF-CEM = test system: CCRF-CEM
NCI/ADR-RES = test system: NCI/ADR-RES
TK-10 = test system: TK-10
EKVX = test system: EKVX
IGROV-1 = test system: IGROV-1
ACHN = test system: ACHN
UO-31 = test system: UO-31
MDA-MB-231 = test system: MDA-MB-231
A498 = test system: A498
PC-3 = test system: PC-3
NCI-H23 = test system: NCI-H23
SR = test system: SR
MDA-N = test system: MDA-N
DU-145 = test system: DU-145
OVCAR-4 = test system: OVCAR-4
UACC-257 = test system: UACC-257
M14 = test system: M14
786-0 = test system: 786-0
SK-MEL-5 = test system: SK-MEL-5
A549 = test system: A549
MDA-MB-435 = test system: MDA-MB-435
SW-620 = test system: SW-620
COLO 205 = test system: COLO 205
T47D = test system: T47D
UACC-62 = test system: UACC-62
MOLT-4 = test system: MOLT-4
SK-OV-3 = test system: SK-OV-3
U-251 = test system: U-251
SF-268 = test system: SF-268
NCI-H460 = test system: NCI-H460
Hs-578T = test system: Hs-578T
HCT-15 = test system: HCT-15
OVCAR-3 = test system: OVCAR-3
SK-MEL-2 = test system: SK-MEL-2
MCF7 = test system: MCF7
OVCAR-8 = test system: OVCAR-8
K562 = test system: K562
RXF 393 = test system: RXF 393
NCI-H226 = test system: NCI-H226
LOX IMVI = test system: LOX IMVI
SK-MEL-28 = test system: SK-MEL-28
SNB-75 = test system: SNB-75
RPMI-8226 = test system: RPMI-8226
HT-29 = test system: HT-29
HCC 2998 = test system: HCC 2998
HOP-62 = test system: HOP-62
SF-539 = test system: SF-539
SF-295 = test system: SF-295
SN12C = test system: SN12C
KM12 = test system: KM12
CAKI-1 = test system: CAKI-1
BT-549 = test system: BT-549
HOP-92 = test system: HOP-92
Malme-3M = test system: Malme-3M
HL-60 = test system: HL-60
NCI-H522 = test system: NCI-H522

CC(=O)OCC(OC(C)=O)C(OC(C)=O)C(/C=N/N(C(C)=O)S(=O)(=O)c1ccc(/C=C2\NC(=O)NC2=O)cc1)OC(C)=O (configuration not stated)
GI50 (HCT-116): > 100 µM (inactive) | GI50 (OVCAR-5): > 100 µM (inactive) | GI50 (SNB-19): > 100 µM (inactive) | GI50 (CCRF-CEM): 50.6 µM (inactive) | GI50 (NCI/ADR-RES): > 100 µM (inactive) | GI50 (TK-10): > 100 µM (inactive) | GI50 (EKVX): > 100 µM (inactive) | GI50 (IGROV-1): > 100 µM (inactive) | GI50 (ACHN): > 100 µM (inactive) | GI50 (UO-31): > 100 µM (inactive) | GI50 (MDA-MB-231): > 100 µM (inactive) | GI50 (A498): > 100 µM (inactive) | GI50 (PC-3): > 100 µM (inactive) | GI50 (NCI-H23): > 100 µM (inactive) | GI50 (SR): > 100 µM (inactive) | GI50 (MDA-N): > 100 µM (inactive) | GI50 (DU-145): > 100 µM (inactive) | GI50 (OVCAR-4): > 100 µM (inactive) | GI50 (UACC-257): > 100 µM (inactive) | GI50 (M14): > 100 µM (inactive) | GI50 (786-0): > 100 µM (inactive) | GI50 (SK-MEL-5): > 100 µM (inactive) | GI50 (A549): > 100 µM (inactive) | GI50 (MDA-MB-435): > 100 µM (inactive) | GI50 (SW-620): > 100 µM (inactive) | GI50 (COLO 205): > 100 µM (inactive) | GI50 (T47D): > 100 µM (inactive) | GI50 (UACC-62): > 100 µM (inactive) | GI50 (MOLT-4): > 100 µM (inactive) | GI50 (SK-OV-3): > 100 µM (inactive) | GI50 (U-251): > 100 µM (inactive) | GI50 (SF-268): > 100 µM (inactive) | GI50 (NCI-H460): > 100 µM (inactive) | GI50 (Hs-578T): > 100 µM (inactive) | GI50 (HCT-15): > 100 µM | GI50 (OVCAR-3): > 100 µM (inactive)

Cc1cn(C2CCC(/C=N\O)O2)c(=O)[nH]c1=O (configuration not stated)
GI50 (HCT-116): > 100 µM (inactive) | GI50 (SK-MEL-2): > 100 µM (inactive) | GI50 (OVCAR-5): > 100 µM (inactive) | GI50 (MCF7): > 100 µM (inactive) | GI50 (SNB-19): > 100 µM (inactive) | GI50 (CCRF-CEM): > 100 µM (inactive) | GI50 (OVCAR-8): > 100 µM (inactive) | GI50 (NCI/ADR-RES): > 100 µM (inactive) | GI50 (EKVX): > 100 µM (inactive) | GI50 (IGROV-1): > 100 µM (inactive) | GI50 (ACHN): > 100 µM (inactive) | GI50 (K562): > 100 µM (inactive) | GI50 (UO-31): > 100 µM (inactive) | GI50 (RXF 393): > 100 µM (inactive) | GI50 (MDA-MB-231): > 100 µM (inactive) | GI50 (NCI-H226): > 100 µM (inactive) | GI50 (A498): > 100 µM (inactive) | GI50 (PC-3): > 100 µM (inactive) | GI50 (NCI-H23): > 100 µM (inactive) | GI50 (SR): > 100 µM (inactive) | GI50 (MDA-N): > 100 µM (inactive) | GI50 (LOX IMVI): > 100 µM (inactive) | GI50 (DU-145): > 100 µM (inactive) | GI50 (OVCAR-4): > 100 µM (inactive) | GI50 (SK-MEL-28): > 100 µM (inactive) | GI50 (SNB-75): > 100 µM (inactive) | GI50 (UACC-257): > 100 µM (inactive) | GI50 (M14): > 100 µM (inactive) | GI50 (RPMI-8226): > 100 µM (inactive) | GI50 (HT-29): > 100 µM (inactive) | GI50 (786-0): > 100 µM (inactive) | GI50 (HCC 2998): > 100 µM (inactive) | GI50 (SK-MEL-5): > 100 µM (inactive) | GI50 (HOP-62): > 100 µM (inactive) | GI50 (SF-539): > 100 µM (inactive) | GI50 (SF-295): > 100 µM (inactive) | GI50 (A549): > 100 µM (inactive) | GI50 (MDA-MB-435): > 100 µM (inactive) | GI50 (SN12C): > 100 µM (inactive) | GI50 (KM12): > 100 µM (inactive) | GI50 (SW-620): > 100 µM (inactive) | GI50 (COLO 205): > 100 µM (inactive) | GI50 (T47D): > 100 µM (inactive) | GI50 (UACC-62): > 100 µM (inactive) | GI50 (MOLT-4): > 100 µM (inactive) | GI50 (CAKI-1): > 100 µM (inactive) | GI50 (U-251): > 100 µM (inactive) | GI50 (NCI-H460): > 100 µM (inactive) | GI50 (HCT-15): > 100 µM | GI50 (BT-549): > 100 µM (inactive) | GI50 (OVCAR-3): > 100 µM (inactive) | GI50 (HOP-92): > 100 µM (inactive)

O=S(=O)(c1ccccc1)N1CCCC(c2ccccc2)CC1 (configuration not stated)
GI50 (HCT-116): 38.3 µM (inactive) | GI50 (SK-MEL-2): 45.9 µM (inactive) | GI50 (Malme-3M): 30.8 µM (inactive) | GI50 (OVCAR-5): > 100 µM (inactive) | GI50 (HL-60): 9.75 µM (inactive) | GI50 (MCF7): 24 µM (inactive) | GI50 (SNB-19): 93.8 µM (inactive) | GI50 (CCRF-CEM): 33.8 µM (inactive) | GI50 (OVCAR-8): 37.2 µM (inactive) | GI50 (NCI/ADR-RES): 38 µM (inactive) | GI50 (TK-10): 51.9 µM (inactive) | GI50 (IGROV-1): > 100 µM (inactive) | GI50 (ACHN): 29.2 µM (inactive) | GI50 (K562): 19.4 µM (inactive) | GI50 (UO-31): 55 µM (inactive) | GI50 (RXF 393): 41.5 µM (inactive) | GI50 (MDA-MB-231): 30.4 µM (inactive) | GI50 (NCI-H226): 52.7 µM (inactive) | GI50 (A498): 49 µM (inactive) | GI50 (PC-3): 30.6 µM (inactive) | GI50 (NCI-H23): 27.5 µM (inactive) | GI50 (SR): 16.9 µM (inactive) | GI50 (MDA-N): 64.6 µM (inactive) | GI50 (DU-145): > 100 µM (inactive) | GI50 (OVCAR-4): 79.1 µM (inactive) | GI50 (SK-MEL-28): > 100 µM (inactive) | GI50 (SNB-75): 30.8 µM (inactive) | GI50 (UACC-257): 38.9 µM (inactive) | GI50 (M14): > 100 µM (inactive) | GI50 (RPMI-8226): 16.4 µM (inactive) | GI50 (HT-29): 15.1 µM (inactive) | GI50 (786-0): 41.9 µM (inactive) | GI50 (HCC 2998): 23.9 µM (inactive) | GI50 (SK-MEL-5): 14.6 µM (inactive) | GI50 (SF-539): > 100 µM (inactive) | GI50 (SF-295): 43.7 µM (inactive) | GI50 (A549): 27.2 µM (inactive) | GI50 (MDA-MB-435): 82 µM (inactive) | GI50 (SN12C): 46 µM (inactive) | GI50 (KM12): 41 µM (inactive) | GI50 (NCI-H522): 35.4 µM (inactive) | GI50 (SW-620): 33 µM (inactive) | GI50 (COLO 205): 42 µM (inactive) | GI50 (T47D): 44.1 µM (inactive) | GI50 (UACC-62): > 100 µM (inactive) | GI50 (MOLT-4): 15.2 µM (inactive) | GI50 (CAKI-1): > 100 µM (inactive) | GI50 (U-251): 45.5 µM (inactive) | GI50 (SF-268): 27.8 µM (inactive) | GI50 (NCI-H460): 31.2 µM (inactive) | GI50 (HCT-15): 46.5 µM | GI50 (BT-549): 58.3 µM (inactive) | GI50 (OVCAR-3): 53.2 µM (inactive) | GI50 (HOP-92): > 100 µM (inactive)
